In US5137897A, “2-substituted 4-(3-alkyl-5-tert.-butyl-4-hydroxyphenyl) thiazoles, processes for their preparation, pharmaceuticals containing them and their use” (Hoechst Aktiengesllschaft, priority 1989, dated 1992):
Where two headings read alike, the source gives them in different places.

Experiments:
[1] = tested on: Adjuvant arthritis (paw volume increase) in rats; experiment: Adjuvant arthritis (method of Pearson), antiinflammatory action on the 5th day; assay type: in vivo, rat (male, Wistar-Lewis strain); settings: Rattus norvegicus, 120 h; for ED50: adjuvant arthritis, oral, determined graphically from dose-response curve; for inhibition in vivo at 50 mg/kg: po, 50 mg/kg p.o. once daily, 1st to 5th day, vs untreated control, read-out: Adjuvant arthritis (% inhibition at 50 mg/kg orally)
Procedure: The testing of the compounds of the formula I according to the invention for antiinflammatory action, influence on immunopathological processes, oxygen free radicaldeactivating properties and influence on arachidonic acid metabolism was carried out in the animal models and bioassays described in the following.
1. Adjuvant arthritis for influencing the antiinflammatory action (Table 2)
(§1) The investigations were carried out by the method of Pearson (Arthrit. Rheum. 1959, 2, 44). Male rats of a Wistar-Lewis strain having a body weight between 130 and 200 g were used as experimental animals. The compounds to be tested were administered orally (p. o.) once daily from the 1st to the 5th experimental day in doses of 50 mg per kg of body weight. The animals of one control group received only the vehicle. Each preparation group and the control group comprised 8 animals. The percentage reduction of the paw volume increase compared to that of the untreated control group was used as the criterion of action. The ED50 values were determined graphically from the dose-response curve.
(§2) 4-(3,5-Di-tert.-butyl-4-hydroxyphenyl)-2-methylthiazole i.e. the compound of the formula [drawing 26] according to US-A-4,535,165 mentioned at the beginning, was additionally included in this and the investigation below as a comparison preparation.

[2] = Free radical scavenger properties (reaction with DPPH); settings: reaction with DPPH at 20° C.; determined graphically
Procedure: a) Free radical scavenger properties The testing in this test, which allows conclusions on the antioxidative potential of a substance, was carried out according to Smith et al., Biochem, Pharmacol. 1987. 36, 1456. In this test, the reaction of the compounds according to the invention with the stable free radical 1,1-diphenyl-2-picrylhydrazyl (DPPH) is monitored optically at 20° C. The rate constant K and reaction orders n in Table 5 were determined graphically in the customary manner.

[3] = tested on: TXB2 formation in mast cell cultures; experiment: Influence on formation of TXB2 in mast cell cultures (rat); assay type: cell-based; settings: read-out: TXB2, Residual activity (%)
Procedure: (§3) Moreover, the substances according to the invention were also characterized in cellular leukocyte systems in vitro as inhibitors of arachidonic acid metabolites. To detect the lipoxygenase metabolites, human neutrophils stimlated by calcium ionophore A 23 187 (70 mcmol/1) were incubated with ^14 C-arachidonic acid (81 mcmol/1) and the principal metabolites formed after 15 minutes at 37° C., such as 5-hydroxyeicosatetraenoic acid (5-HETE) and the more strongly proinflammatory leukotriene B4 (LTB4) were determined quantitatively (Tab. 6) with the aid of a radio monitor after separation by HPLC. The influence on the proinflammatory arachiconic acid metabolites thromboxane and LTB4 in cultures prepared from rat mast cells was determined in a corresponding manner (Tab. 7).

[4] = tested on: LTB4 formation in mast cell cultures; experiment: Influence on formation of LTB4 in mast cell cultures (rat); assay type: cell-based; settings: read-out: LTB4, Residual activity (%)
Procedure: as §3

[5] = tested on: Adjuvant arthritis (Perper modification; paw volume) in rats; experiment: Adjuvant arthritis (Perper modification), paw volume on the 21st day; assay type: in vivo, rat (male, Wistar-Lewis strain); settings: Rattus norvegicus, po, 504 h, 1st to 12th day; for inhibition in vivo at 2.5 mg/kg: 2.5 mg/kg/day; for inhibition in vivo at 5 mg/kg: 5 mg/kg/day
[6] = biological target: T1, cyclooxygenase (Ovis aries, UniProt P05979); experiment: Cyclooxygenase (microsomes) inhibition in vitro; assay type: biochemical, sheep
T1 construct: microsomal cyclooxygenase system (fraction from sheep seminal vesicles, Paesel, Frankfurt, Germany); purchased Paesel, Frankfurt, Germany; host or cells: sheep seminal vesicles (microsomal fraction)
T1 sequence (P05979 25-600): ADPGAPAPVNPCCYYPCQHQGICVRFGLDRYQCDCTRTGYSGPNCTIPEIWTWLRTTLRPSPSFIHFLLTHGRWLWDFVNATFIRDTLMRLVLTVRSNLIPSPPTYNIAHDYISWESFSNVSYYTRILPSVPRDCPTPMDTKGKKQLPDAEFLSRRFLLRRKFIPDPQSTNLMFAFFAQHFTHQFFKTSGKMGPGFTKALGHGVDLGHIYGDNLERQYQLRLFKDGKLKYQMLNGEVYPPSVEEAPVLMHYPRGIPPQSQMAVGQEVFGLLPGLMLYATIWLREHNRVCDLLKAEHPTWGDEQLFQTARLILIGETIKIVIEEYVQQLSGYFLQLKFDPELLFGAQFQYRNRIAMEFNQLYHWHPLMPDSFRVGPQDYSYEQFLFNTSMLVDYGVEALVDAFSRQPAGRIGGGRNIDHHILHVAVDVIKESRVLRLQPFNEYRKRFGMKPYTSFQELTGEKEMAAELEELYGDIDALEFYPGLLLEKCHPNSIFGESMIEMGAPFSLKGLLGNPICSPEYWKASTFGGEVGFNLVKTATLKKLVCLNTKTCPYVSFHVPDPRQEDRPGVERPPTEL
Procedure: (§4) The inhibitory action of the compounds according to the invention is measured on the in vitro arachidonic acid degradation catalyzed by cyclooxycenase and lipoxycenase with the aid of the test systems described in Weithmann and Alpermann, Arzneim.-Forsch. 1985, 35, 947: The cyclooxygenase-catalyzed synthesis of prostaglandins from arachidonic acid is measured in the microsomal cyclooxygenase system (fraction from sheep seminal vesicles, Paesel, Frankfurt, Germany). The coenzyme is adrenaline, whose conversion to adrenochrome is monitored by spectrophotometry at 492 nm. Cis-9-cis-12-linoleic acid is incubated with lipoxygenase (L7127, Sigma, Deisenhofen, Germany) in the lipoxygenase system in vitro and the formation of conjugated double bonds taking place during the oxygenation reaction is monitored optically at 234 nm.
The inhibitor actions, or the inhibitor concentrations necessary for a 50 % inhibition of enzyme activity (IC50 values), have been determined for the following examples according to the invention:
Cyclooxygenase (microsomes)

[7] = tested on: LTB4 formation in human neutrophils; experiment: Influence on LTB4 formation in human neutrophils; assay type: cell-based; settings: Neutrophil
Procedure: as §3

[8] = tested on: 5-HETE formation in human neutrophils; experiment: Influence on 5-HETE formation in human neutrophils; assay type: cell-based; settings: Neutrophil
Procedure: as §3

[9] = tested on: Arthus reaction (paw volume increase) in rats; experiment: Reverse passive Arthus reaction; assay type: in vivo, rat (male Sprague-Dawley)
Procedure: b) Reverse passive Arthus reaction
Male Sprague-Dawley rats having a body weight between 100 and 120 g. which had been divided into groups of 8 animals in each case, were used as experimental animals. The animals received a subplantar injection in the left hind paw of 0.5 mg of immunoglobulin in 0.1 ml of a sodium chloride solution 1 hour after oral administration of the test substance. After 4 hours, the Arthus reaction was measured, the percentage change in the paw volume increase compared to that of the control group treated only with vehicle being used as a measuring parameter for the action.

[10] = biological target: T2, lipoxygenase (Glycine max, UniProt P08170); experiment: Lipoxygenase (enzyme) inhibition in vitro; assay type: biochemical
T2 construct: purchased Sigma, Deisenhofen, Germany L7127
T2 sequence (P08170 1-839): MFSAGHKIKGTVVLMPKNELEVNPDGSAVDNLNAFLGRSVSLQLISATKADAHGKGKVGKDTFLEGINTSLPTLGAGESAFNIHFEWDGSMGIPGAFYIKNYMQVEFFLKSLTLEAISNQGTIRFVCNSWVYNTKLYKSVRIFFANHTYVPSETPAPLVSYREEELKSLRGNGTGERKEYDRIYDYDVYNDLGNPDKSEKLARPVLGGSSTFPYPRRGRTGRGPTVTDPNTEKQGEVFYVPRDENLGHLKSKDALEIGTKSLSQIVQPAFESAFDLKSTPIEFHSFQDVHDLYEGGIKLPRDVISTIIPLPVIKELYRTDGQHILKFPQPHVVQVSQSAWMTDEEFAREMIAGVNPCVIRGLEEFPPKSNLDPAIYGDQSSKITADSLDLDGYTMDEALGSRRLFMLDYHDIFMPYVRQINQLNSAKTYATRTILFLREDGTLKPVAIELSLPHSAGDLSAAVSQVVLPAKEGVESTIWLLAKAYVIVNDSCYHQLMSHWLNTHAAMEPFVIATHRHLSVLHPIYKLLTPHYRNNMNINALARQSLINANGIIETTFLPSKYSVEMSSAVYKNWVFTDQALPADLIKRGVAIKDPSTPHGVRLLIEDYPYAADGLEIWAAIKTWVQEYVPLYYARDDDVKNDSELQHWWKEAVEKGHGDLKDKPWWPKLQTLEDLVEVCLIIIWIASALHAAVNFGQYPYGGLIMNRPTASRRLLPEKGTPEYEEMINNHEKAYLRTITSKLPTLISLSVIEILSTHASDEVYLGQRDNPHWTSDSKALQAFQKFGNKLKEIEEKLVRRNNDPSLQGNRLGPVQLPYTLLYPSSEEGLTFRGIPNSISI
Procedure: as §4
The inhibitor actions, or the inhibitor concentrations necessary for a 50 % inhibition of enzyme activity (IC50 values), have been determined for the following examples according to the invention: […]

[11] = tested on: Adjuvant arthritis (Perper modification; paw volume) in rats; experiment: Adjuvant arthritis (Perper modification), paw volume on the 21st day; assay type: in vivo, rat (male, Wistar-Lewis strain); settings: Rattus norvegicus, po, 504 h, 50 mg/kg/day, 1st to 12th day
Procedure: as §1, §2
a) Adjuvant arthritis (Perper modification)
The animals were only treated from the 1st to the 12th experimental day in the experimental arrangement described in item 1. After a treatment-free interval of 9 days, determination of the paw volume of the left and right hind paw was carried out on the 21st day (compare Table 3).

[12] = read-out: % inhibition on the 21st day, Left paw
[13] = read-out: % inhibition on the 21st day, Right paw

In the case of `CC(C)(C)c1cc(-c2csc(CCC(=O)O)n2)cc(C(C)(C)C)c1O` [Example 3, 3-[4-(3,5-Di-tert.-butyl-4-hydroxyphenyl)thiazol-2-yl]propionic acid], the ED50 [1] is reported as 0.9 mg/kg, the inhibition in vivo at 50 mg/kg [1] is reported as 84% and the reaction order n [2] is reported as < 1. For the same compound, the activity at 1 µM ([3]; 1 μM) was 113 ± 49%, the activity at 10 µM ([3]; 10 μM) was 94 ± 17% and the activity at 100 µM ([3]; 100 μM) was 28 ± 10%. It also gave an activity at 1 µM ([4]; 1 μM) of 94 ± 12%, an activity at 10 µM ([4]; 10 μM) of 102 ± 9% and an activity at 100 µM ([4]; 100 μM) of 78 ± 14%. For the same compound, the inhibition in vivo at 2.5 mg/kg [5, 12] was 65%, the inhibition in vivo at 2.5 mg/kg [5, 13] was 59% and the inhibition in vivo at 5 mg/kg [5, 12] was 41%. The inhibition in vivo at 5 mg/kg [5, 13] was 74%.
With `CC(C)(C)c1cc(-c2csc(CCC(=O)NO)n2)cc(C(C)(C)C)c1O` [Example 7, 3-[4-(3 .-butyl-4-hydroxyphenyl)thiazol-2-yl]propionylhydroxamic acid] the ED50 [1] was 2.4 mg/kg, the inhibition in vivo at 50 mg/kg [1] was 83% and the reaction order n [2] was 1. The inhibition at 100 µM [6] was 75%, the activity at 0.1 µM ([7]; 0.1 μM, n = 6, read-out: LTB4 formation, Residual activity (%)) was 91 ± 13.2% and the activity at 1 µM ([7]; 1 μM, n = 6, read-out: LTB4 formation, Residual activity (%)) was 74.3 ± 21.5%. The activity at 10 µM ([7]; 10 μM, n = 6, read-out: LTB4 formation, Residual activity (%)) was 35 ± 17%, the activity at 100 µM ([7]; 100 μM, n = 9, read-out: LTB4 formation, Residual activity (%)) was 1.7 ± 1.3% and the activity at 0.1 µM ([8]; 0.1 μM, n = 6, read-out: 5-HETE formation, Residual activity (%)) was 89.2 ± 12.1%. The activity at 1 µM ([8]; 1 μM, n = 6, read-out: 5-HETE formation, Residual activity (%)) was 87 ± 15.6%, the activity at 10 µM ([8]; 10 μM, n = 6, read-out: 5-HETE formation, Residual activity (%)) was 39 ± 12.8% and the activity at 100 µM ([8]; 100 μM, n = 9, read-out: 5-HETE formation, Residual activity (%)) was 1.7 ± 0.4%.
For `CCOC(=O)Cc1nc(-c2cc(C(C)(C)C)c(O)c(C(C)(C)C)c2)cs1` [Example 8], the “% inhibition (Arthus reaction)” value ([9]; 60 mg/kg orally) was 38%, the reaction order n [2] was 1 and the IC50 ([10]; Lipoxygenase (enzyme)) was 50 µM. The inhibition at 100 µM [6] was 75%.
For `Cc1sc(CCC(=O)O)nc1-c1cc(C(C)(C)C)c(O)c(C(C)(C)C)c1` [Example 15], the ED50 [1] was 2.6 mg/kg, the inhibition in vivo at 50 mg/kg [1] was 67% and the inhibition in vivo at 50 mg/kg [11, 12] was 39%. For the same compound, the inhibition in vivo at 50 mg/kg [11, 13] was 50%, the “% inhibition (Arthus reaction)” value ([9]; 100 mg/kg orally) was 47% and the reaction order n [2] was < 1. It also gave an inhibition at 100 µM ([10]; at 100 μM) of 78%.
In the case of `CCOC(=O)CCc1nc(-c2cc(C)c(O)c(C(C)(C)C)c2)cs1` [Example 16], the reaction order n [2] is reported as < 1 and the IC50 [6] is reported as 34 µM.
